# Assay results from patent US20170232083A1, “METHODS OF DIAGNOSIS AND TREATMENT OF CELIAC DISEASE IN CHILDREN” (priority 2014, published 2017).
# Tested on: PBMC (polyclonal gluten-specific T cells) of paediatric and adult CD patients
# Assay: IFN-γ ELISpot of PBMC after 3 day oral wheat challenge (SFU, % of maximal peptide response, dominance scores, EC50; Examples 5-6)
# Type: cell-based, human
# Details: for IFN-γ ELISpot response: after oral wheat challenge; for Cross-reactive T cell response: following wheat challenge
# [1] = patient A, 11-17 yrs, cut-off 10 SFU
# [2] = patient E, H, 11-17 yrs, cut-off 10 SFU
# [3] = patient F, 11-17 yrs, cut-off 10 SFU
# [4] = patient G, 11-17 yrs, cut-off 10 SFU
# [5] = patient H (HLA-DQ2.5 homozygote), 3-5yrs, cut-off 10 SFU
# [6] = patient H, 11-17 yrs, cut-off 10 SFU
# [7] = patient ID not given, 11-17 yrs, cut-off 10 SFU
# [8] = patient N, 3-5yrs, cut-off 10 SFU
# [9] = patient P, 11-17 yrs, cut-off 21.6 SFU
# [10] = patient Q, 11-17 yrs, cut-off 10 SFU
# [11] = patient U, H, 11-17 yrs, cut-off 10 SFU
# [12] = patient V, 6-10 yrs, cut-off 10 SFU
# [13] = patient Y, 6-10 yrs, cut-off 10 SFU
# [14] = patient eleven, 6-10 yrs, cut-off 10 SFU
# [15] = patient four, 3-5yrs, cut-off 10 SFU
# [16] = patient seven, 6-10 yrs, cut-off 10.5 SFU
# [17] = patient ten, 3-5yrs, cut-off 10 SFU
# [18] = patient three, 6-10 yrs, cut-off 10.5 SFU
# [19] = patient twelve, 11-17 yrs, cut-off 10 SFU
# [20] = patient two, 3-5yrs, cut-off 10 SFU
# [21] = patient ID not given, max peptide 95 SFU
# [22] = patient eleven, max peptide 57 SFU
# [23] = patient five, max peptide 48 SFU
# [24] = patient two, max peptide 60 SFU
sequence,measurement,setting,value
GQSGYYPTSPQQS,IFN-γ ELISpot response,[1],5 SFU
same,IFN-γ ELISpot response,[2],0 SFU
same,IFN-γ ELISpot response,[3],10 SFU
same,Significant response as percentage of maximal peptide SFU,"patient F, max peptide 178 SFU",(6-10% = ^)
same,IFN-γ ELISpot response,[4],1 SFU
same,IFN-γ ELISpot response,[5],2 SFU
same,IFN-γ ELISpot response,[6],4 SFU
same,IFN-γ ELISpot response,[7],1 SFU
same,Significant response as percentage of maximal peptide SFU,"patient II, max peptide 15 SFU",+ (>70% = +)
same,IFN-γ ELISpot response,[8],0 SFU
same,IFN-γ ELISpot response,[9],10 SFU
same,IFN-γ ELISpot response,[10],5 SFU
same,IFN-γ ELISpot response,[11],4 SFU
same,IFN-γ ELISpot response,[12],3 SFU
same,IFN-γ ELISpot response,[13],0 SFU
same,IFN-γ ELISpot response,[14],4 SFU
same,IFN-γ ELISpot response,[15],3 SFU
same,IFN-γ ELISpot response,[16],11 SFU
same,Significant response as percentage of maximal peptide SFU,"patient seven, max peptide 27 SFU",′′′ (41-70% = ′′′)
same,IFN-γ ELISpot response,[17],5 SFU
same,IFN-γ ELISpot response,[18],6 SFU
same,IFN-γ ELISpot response,[19],2 SFU
same,IFN-γ ELISpot response,[20],2 SFU
LPFPQPEQPFVVV,Cross-reactive T cell response,"subject A, 11-17yrs",1 SFU
same,Significant response as a percentage of maximal peptide SFU,"subject D, 11-17yrs",′′′ (41-70% = ′′′)
same,Cross-reactive T cell response,"subject D, 11-17yrs",20 SFU
same,Significant response as a percentage of maximal peptide SFU,"subject E, 11-17yrs",(6-10% - ^)
same,Cross-reactive T cell response,"subject E, 11-17yrs",16 SFU
same,Significant response as a percentage of maximal peptide SFU,"subject F, 11-17yrs",(6-10% - ^)
same,Cross-reactive T cell response,"subject F, 11-17yrs",15 SFU
same,Cross-reactive T cell response,"subject G, 11-17yrs",3 SFU
same,Cross-reactive T cell response,subject H,3 SFU
same,Cross-reactive T cell response,subject I (3-5yrs/6-10yrs part),7 SFU
same,Significant response as a percentage of maximal peptide SFU,subject J,′ (11-20% = ′)
same,Cross-reactive T cell response,subject J (3-5yrs/6-10yrs part),29 SFU
same,Significant response as a percentage of maximal peptide SFU,subject K,′′ (21-40% = ′′)
same,Cross-reactive T cell response,subject K (3-5yrs/6-10yrs part),18 SFU
same,Cross-reactive T cell response,"subject P, 11-17yrs",20 SFU
same,Significant response as a percentage of maximal peptide SFU,"subject Q, 11-17yrs",′′ (21-40% = ′′)
same,Cross-reactive T cell response,"subject Q, 11-17yrs",31 SFU
same,Significant response as a percentage of maximal peptide SFU,"subject T, 11-17yrs",′′′ (41-70% = ′′′)
same,Cross-reactive T cell response,"subject T, 11-17yrs",42 SFU
same,Cross-reactive T cell response,"subject U, 11-17yrs",8 SFU
same,Significant response as a percentage of maximal peptide SFU,subject V,′′ (21-40% = ′′)
same,Cross-reactive T cell response,subject V (3-5yrs/6-10yrs part),13 SFU
same,Cross-reactive T cell response,subject W (3-5yrs/6-10yrs part),9 SFU
same,Cross-reactive T cell response,subject Y (3-5yrs/6-10yrs part),7 SFU
same,Significant response as a percentage of maximal peptide SFU,subject five,+ (>70% = +)
same,Cross-reactive T cell response,subject five (3-5yrs/6-10yrs part),34 SFU
same,Cross-reactive T cell response,"subject nine, 11-17yrs",1 SFU
same,Cross-reactive T cell response,subject seven (3-5yrs/6-10yrs part),3 SFU
same,Cross-reactive T cell response,subject six (3-5yrs/6-10yrs part),8 SFU
same,Cross-reactive T cell response,subject ten (3-5yrs/6-10yrs part),8 SFU
same,Significant response as a percentage of maximal peptide SFU,subject two,′′ (21-40% = ′′)
same,Cross-reactive T cell response,subject two (3-5yrs/6-10yrs part),18 SFU
LPYPQPQLPYPQP,IFN-γ ELISpot response,[1],3 SFU
same,IFN-γ ELISpot response,[2],61 SFU
same,Significant response as percentage of maximal peptide SFU,"patient E, max peptide 224 SFU",′′ (21-40% = ′′)
same,IFN-γ ELISpot response,[3],120 SFU
same,Significant response as percentage of maximal peptide SFU,"patient F, max peptide 178 SFU",′′′ (41-70% = ′′′)
same,IFN-γ ELISpot response,[4],2 SFU
same,IFN-γ ELISpot response,[5],13 SFU
same,IFN-γ ELISpot response,[6],13 SFU
same,Significant response as percentage of maximal peptide SFU,"patient H, max peptide 17 SFU",+ (>70% = +)
same,IFN-γ ELISpot response,[7],49 SFU
same,Significant response as percentage of maximal peptide SFU,[21],′′′ (41-70% = ′′′)
same,Significant response as percentage of maximal peptide SFU,"patient II, max peptide 15 SFU",+ (>70% = +)
same,Significant response as percentage of maximal peptide SFU,"patient J, max peptide 196 SFU",′′ (21-40% = ′′)
same,Significant response as percentage of maximal peptide SFU,"patient K, max peptide 53 SFU",′′ (21-40% = ′′)
same,Significant response as percentage of maximal peptide SFU,"patient M, max peptide 48 SFU",′′ (21-40% = ′′)
same,IFN-γ ELISpot response,[8],3 SFU
same,IFN-γ ELISpot response,[9],17 SFU
same,IFN-γ ELISpot response,[10],53 SFU
same,Significant response as percentage of maximal peptide SFU,"patient Q, max peptide 97 SFU",′′′ (41-70% = ′′′)
same,IFN-γ ELISpot response,[11],25 SFU
same,Significant response as percentage of maximal peptide SFU,"patient U, max peptide 81 SFU",′′ (21-40% = ′′)
same,IFN-γ ELISpot response,[12],18 SFU
same,Significant response as percentage of maximal peptide SFU,"patient V, max peptide 35 SFU",′′′ (41-70% = ′′′)
same,IFN-γ ELISpot response,[13],16 SFU
same,Significant response as percentage of maximal peptide SFU,"patient Y, max peptide 16 SFU",+ (>70% = +)
same,IFN-γ ELISpot response,[14],25 SFU
same,Significant response as percentage of maximal peptide SFU,[22],′′′ (41-70% = ′′′)
same,Significant response as percentage of maximal peptide SFU,[23],′′ (21-40% = ′′)
same,IFN-γ ELISpot response,[15],22 SFU
same,Significant response as percentage of maximal peptide SFU,"patient four, max peptide 44 SFU",′′′ (41-70% = ′′′)
same,IFN-γ ELISpot response,[16],8 SFU
same,IFN-γ ELISpot response,[17],7 SFU
same,IFN-γ ELISpot response,[18],75 SFU
same,IFN-γ ELISpot response,[19],5 SFU
same,IFN-γ ELISpot response,[20],14 SFU
same,Significant response as percentage of maximal peptide SFU,[24],′′ (21-40% = ′′)
LQPFPQPELPYPQPQ,IFN-γ ELISpot response,[1],2.5 SFU
same,Significant response as percentage of maximal peptide SFU,"patient D, max peptide 30.5 SFU",+ (>70% = +)
same,IFN-γ ELISpot response,[2],152 SFU
same,Significant response as percentage of maximal peptide SFU,"patient E, max peptide 224 SFU",′′′ (41-70% = ′′′)
same,IFN-γ ELISpot response,[3],166.5 SFU
same,Significant response as percentage of maximal peptide SFU,"patient F, max peptide 178 SFU",+ (>70% = +)
same,IFN-γ ELISpot response,[4],10 SFU
same,Significant response as percentage of maximal peptide SFU,"patient G, max peptide 15 SFU",′′′ (41-70% = ′′′)
same,IFN-γ ELISpot response,[5],31 SFU
same,IFN-γ ELISpot response,[6],8 SFU
same,IFN-γ ELISpot response,[7],66.5 SFU
same,Significant response as percentage of maximal peptide SFU,[21],′′′ (41-70% = ′′′)
same,Significant response as percentage of maximal peptide SFU,"patient J, max peptide 196 SFU",′′′ (41-70% = ′′′)
same,Significant response as percentage of maximal peptide SFU,"patient K, max peptide 53 SFU",′′ (21-40% = ′′)
same,Significant response as percentage of maximal peptide SFU,"patient M, max peptide 48 SFU",′′′ (41-70% = ′′′)
same,IFN-γ ELISpot response,[8],5.5 SFU
same,IFN-γ ELISpot response,[9],41.5 SFU
same,Significant response as percentage of maximal peptide SFU,"patient P, max peptide 64 SFU",′′′ (41-70% = ′′′)
same,IFN-γ ELISpot response,[10],67.5 SFU
same,Significant response as percentage of maximal peptide SFU,"patient Q, max peptide 97 SFU",′′′ (41-70% = ′′′)
same,IFN-γ ELISpot response,[11],45 SFU
same,Significant response as percentage of maximal peptide SFU,"patient U, max peptide 81 SFU",′′′ (41-70% = ′′′)
same,IFN-γ ELISpot response,[12],30 SFU
same,Significant response as percentage of maximal peptide SFU,"patient V, max peptide 35 SFU",+ (>70% = +)
same,IFN-γ ELISpot response,[13],10.5 SFU
same,Significant response as percentage of maximal peptide SFU,"patient Y, max peptide 16 SFU",′′′ (41-70% = ′′′)
same,Significant response as percentage of maximal peptide SFU,"patient Z, max peptide 13 SFU",+ (>70% = +)
same,Significant response as percentage of maximal peptide SFU,"patient eight, max peptide 12 SFU",+ (>70% = +)
same,IFN-γ ELISpot response,[14],57 SFU
same,Significant response as percentage of maximal peptide SFU,[22],+ (>70% = +)
same,Significant response as percentage of maximal peptide SFU,[23],+ (>70% = +)
same,IFN-γ ELISpot response,[15],40.5 SFU
same,Significant response as percentage of maximal peptide SFU,"patient one, max peptide 16.5 SFU",+ (>70% = +)
same,IFN-γ ELISpot response,[16],8 SFU
same,IFN-γ ELISpot response,"patient six, 3-5yrs, cut-off 10 SFU",13 SFU
same,Significant response as percentage of maximal peptide SFU,"patient six, max peptide 13 SFU",+ (>70% = +)
same,IFN-γ ELISpot response,[17],14 SFU
same,Significant response as percentage of maximal peptide SFU,"patient ten, max peptide 14.5 SFU",+ (>70% = +)
same,IFN-γ ELISpot response,[18],99.5 SFU
same,IFN-γ ELISpot response,[19],27 SFU
same,IFN-γ ELISpot response,[20],29 SFU
same,Significant response as percentage of maximal peptide SFU,[24],′′′ (41-70% = ′′′)
